# What was measured:
# Escherichia coli = assay: Antibacterial activity against wild type Escherichia coli ATCC 25922 at pH 7.4 by CLSI-based broth microdilution assay; format: functional
# Pseudomonas aeruginosa [1] = assay: Antibacterial activity against wild type Pseudomonas aeruginosa PAO1 K767 by CLSI-based broth microdilution assay; format: functional
# [2] = n-Octanol-PBS buffer partition coefficient, log D of the compound at pH 7.4 after overnight incubation by LC/UV/qTOF analysis; format: physicochemical
# DNA gyrase = DNA gyrase (Escherichia coli, UniProt P0AES4+P0AES6); assay: Inhibition of recombinant full-length C-terminal His6-tagged Escherichia coli DNA gyrase AB supercoiling activity using relaxed DNA as substrate preincubated for 30 mins followed by substrate addition and measured after 2 hrs in presence of ATP by size exclusion HPLC analysis; format: protein-complex assay
# Pseudomonas aeruginosa [3] = assay: Antibacterial activity against Pseudomonas aeruginosa K1542/K767 harboring MexB/MexXY deletion mutant by CLSI-based broth microdilution assay; format: functional
# [4] = Protein binding in CD1 mouse plasma at 10 uM incubated for 4 hrs under shaking condition by LC-MS/MS analysis; format: ADME, cell-free; conditions: read-out: PPB (converted)
# [5] = Dark toxicity in BALB/c mouse 3T3 cells assessed as reduction in cell viability incubated for 1 hr prior to 50 mins incubation under dark condition followed by replacement of medium and measured after 24 hrs by neutral red uptake assay; format: cell-based, NIH3T3; conditions: BALB/c 3T3 cells
# [6] = Clearance in rat at 5 mg/kg, iv or 10 mg/kg, po measured up to 24 hrs by LC-MS/MS analysis; format: ADME, organism-based; conditions: in vivo
# [7] = Terminal half life in rat at 5 mg/kg, iv measured up to 24 hrs by LC-MS/MS analysis; format: ADME, organism-based; conditions: in vivo, read-out: beta t1/2 (converted)
# [8] = Clearance in mouse at 5 mg/kg, iv or po measured up to 24 hrs by LC-MS/MS analysis; format: ADME, organism-based; conditions: in vivo
# [9] = Oral bioavailability in mouse at 5 mg/kg measured up to 24 hrs by LC-MS/MS analysis; format: ADME, organism-based; conditions: in vivo
# Proteus mirabilis = assay: Antibacterial activity against Proteus mirabilis clinical isolates by CLSI-based broth microdilution assay; format: functional
# Serratia marcescens = assay: Antibacterial activity against Serratia marcescens clinical isolates by CLSI-based broth microdilution assay; format: functional
compound,measurement,setting,value
Cc1c(N2CC3CC3(N)C2)c(F)cc2c(CN)c(F)c(=O)n(C3CC3)c12 (configuration not stated),MIC,Escherichia coli,0.06 µg/mL
same,MIC,Pseudomonas aeruginosa [1],1 µg/mL
same,logD,[2],1.1
same,IC50,DNA gyrase,1.25 µM
same,MIC,Pseudomonas aeruginosa [3],0.25 µg/mL
same,"fraction unbound at 4 h, 10 µM",[4],0.68
same,IC50 at 110 min,[5],1000 µM
same,clearance,[6],71 mL/min/kg
same,half-life,[7],8.2 h
same,clearance,[8],50 mL/min/kg
same,bioavailability,[9],36%
same,MIC,Proteus mirabilis,0.06 to 32 µg/mL
same,MIC50,Proteus mirabilis,1 µg/mL
same,MIC90,Proteus mirabilis,8 µg/mL
same,MIC,Serratia marcescens,0.06 to 32 µg/mL
same,MIC50,Serratia marcescens,1 µg/mL
same,MIC90,Serratia marcescens,8 µg/mL

# Source: ChEMBL document CHEMBL4616724, “Topoisomerase Inhibitors Addressing Fluoroquinolone Resistance in Gram-Negative Bacteria” (J Med Chem, 2020)
